Data reported in ChEMBL document CHEMBL5291721, “A preclinical secondary pharmacology resource illuminates target-adverse drug reaction associations of marketed drugs” (Nat Commun, 2023).

Assays:
Androgen receptor [1] = biological target: T1, Androgen receptor (Rattus norvegicus, UniProt P15207); type: functional
T1 sequence (P15207 whole entry): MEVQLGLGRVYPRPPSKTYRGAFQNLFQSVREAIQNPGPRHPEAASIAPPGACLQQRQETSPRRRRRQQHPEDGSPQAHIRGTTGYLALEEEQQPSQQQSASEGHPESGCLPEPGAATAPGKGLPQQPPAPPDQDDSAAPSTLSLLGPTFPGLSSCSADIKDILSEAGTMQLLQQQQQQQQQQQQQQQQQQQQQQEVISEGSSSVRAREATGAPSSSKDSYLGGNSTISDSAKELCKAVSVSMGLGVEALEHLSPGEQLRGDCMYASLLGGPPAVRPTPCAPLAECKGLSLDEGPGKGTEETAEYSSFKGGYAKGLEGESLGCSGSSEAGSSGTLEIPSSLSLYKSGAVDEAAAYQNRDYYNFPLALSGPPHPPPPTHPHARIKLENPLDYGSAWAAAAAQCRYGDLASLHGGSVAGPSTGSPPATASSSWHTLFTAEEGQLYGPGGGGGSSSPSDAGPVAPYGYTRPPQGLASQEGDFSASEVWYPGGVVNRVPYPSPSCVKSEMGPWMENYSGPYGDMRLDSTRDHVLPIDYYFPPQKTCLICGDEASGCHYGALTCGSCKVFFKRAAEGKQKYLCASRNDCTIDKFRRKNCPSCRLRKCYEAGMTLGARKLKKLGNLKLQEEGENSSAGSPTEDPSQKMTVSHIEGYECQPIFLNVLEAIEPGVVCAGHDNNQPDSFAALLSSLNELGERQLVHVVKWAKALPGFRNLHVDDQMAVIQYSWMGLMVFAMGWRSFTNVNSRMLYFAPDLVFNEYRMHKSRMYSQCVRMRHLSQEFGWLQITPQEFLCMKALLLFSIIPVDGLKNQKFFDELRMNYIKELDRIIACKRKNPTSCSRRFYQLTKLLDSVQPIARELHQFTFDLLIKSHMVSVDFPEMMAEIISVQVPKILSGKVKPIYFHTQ

Androgen receptor [2] = biological target: T1, Androgen receptor; type: functional; remark: listed apart in the source
Histamine H2 receptor = Histamine H2 receptor (Homo sapiens, UniProt P25021); type: functional, cell-based
Sequence of Histamine H2 receptor (P25021 whole entry): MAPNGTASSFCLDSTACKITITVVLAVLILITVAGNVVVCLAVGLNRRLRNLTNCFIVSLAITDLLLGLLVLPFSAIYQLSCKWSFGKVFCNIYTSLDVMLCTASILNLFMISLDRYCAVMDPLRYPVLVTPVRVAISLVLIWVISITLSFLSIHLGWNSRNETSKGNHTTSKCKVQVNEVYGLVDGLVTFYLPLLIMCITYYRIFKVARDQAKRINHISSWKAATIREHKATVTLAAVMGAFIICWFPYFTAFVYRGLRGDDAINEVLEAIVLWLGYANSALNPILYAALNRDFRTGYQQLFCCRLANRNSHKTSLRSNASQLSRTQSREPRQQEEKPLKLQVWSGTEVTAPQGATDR

[3] = biological target: Voltage-dependent L-type calcium channel subunit alpha-1C (Rattus norvegicus, UniProt P22002); type: functional
[4] = biological target: T2, Alpha-2C adrenergic receptor (Homo sapiens, UniProt P18825); type: functional
T2 sequence (P18825 whole entry): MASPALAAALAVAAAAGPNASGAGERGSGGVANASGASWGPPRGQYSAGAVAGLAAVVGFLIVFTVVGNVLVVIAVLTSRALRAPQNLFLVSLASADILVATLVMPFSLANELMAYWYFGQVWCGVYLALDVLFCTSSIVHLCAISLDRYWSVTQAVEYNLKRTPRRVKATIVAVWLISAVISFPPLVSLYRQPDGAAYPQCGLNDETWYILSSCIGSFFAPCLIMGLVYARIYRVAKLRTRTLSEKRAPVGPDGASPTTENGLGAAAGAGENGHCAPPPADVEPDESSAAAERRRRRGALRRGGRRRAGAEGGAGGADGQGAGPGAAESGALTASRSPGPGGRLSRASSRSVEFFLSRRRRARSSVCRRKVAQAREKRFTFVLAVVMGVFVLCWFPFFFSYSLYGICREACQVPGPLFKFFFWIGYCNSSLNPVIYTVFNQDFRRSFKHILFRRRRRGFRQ

[5] = biological target: Beta-2 adrenergic receptor (Homo sapiens, UniProt P07550)
Mu-type opioid receptor = Mu-type opioid receptor (Homo sapiens, UniProt P35372); assay: biochemical; type: functional
Sequence of Mu-type opioid receptor (P35372 whole entry): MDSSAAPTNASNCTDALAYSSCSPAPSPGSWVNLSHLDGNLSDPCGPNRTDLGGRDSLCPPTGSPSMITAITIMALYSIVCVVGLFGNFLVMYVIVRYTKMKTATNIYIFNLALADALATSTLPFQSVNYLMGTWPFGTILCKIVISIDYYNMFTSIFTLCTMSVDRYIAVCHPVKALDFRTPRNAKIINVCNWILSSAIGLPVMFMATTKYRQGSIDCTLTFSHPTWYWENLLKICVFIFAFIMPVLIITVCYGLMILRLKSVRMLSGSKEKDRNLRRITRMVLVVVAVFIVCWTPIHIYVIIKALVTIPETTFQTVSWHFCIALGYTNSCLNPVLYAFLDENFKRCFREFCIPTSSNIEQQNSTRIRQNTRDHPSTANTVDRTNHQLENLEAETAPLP

[6] = biological target: Glutamate receptor ionotropic, NMDA 1 (Rattus norvegicus, UniProt P35439)
Histamine H3 receptor = Histamine H3 receptor (Homo sapiens, UniProt Q9Y5N1)
Sequence of Histamine H3 receptor (Q9Y5N1 whole entry): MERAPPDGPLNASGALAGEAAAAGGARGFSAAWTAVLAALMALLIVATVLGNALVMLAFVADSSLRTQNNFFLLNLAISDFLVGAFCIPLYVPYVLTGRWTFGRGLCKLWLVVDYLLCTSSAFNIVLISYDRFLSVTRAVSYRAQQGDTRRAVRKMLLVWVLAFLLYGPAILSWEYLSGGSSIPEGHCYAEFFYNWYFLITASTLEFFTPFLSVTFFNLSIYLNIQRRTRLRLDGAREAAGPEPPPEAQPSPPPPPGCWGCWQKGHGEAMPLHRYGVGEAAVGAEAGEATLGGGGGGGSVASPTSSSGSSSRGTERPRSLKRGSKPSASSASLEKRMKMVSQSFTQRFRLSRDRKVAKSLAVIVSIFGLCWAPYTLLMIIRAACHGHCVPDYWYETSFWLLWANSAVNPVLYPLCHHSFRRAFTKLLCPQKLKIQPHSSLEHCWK

Cannabinoid receptor 1 [7] = biological target: T3, Cannabinoid receptor 1 (Homo sapiens, UniProt P21554); type: functional, cell-based
T3 sequence (P21554 whole entry): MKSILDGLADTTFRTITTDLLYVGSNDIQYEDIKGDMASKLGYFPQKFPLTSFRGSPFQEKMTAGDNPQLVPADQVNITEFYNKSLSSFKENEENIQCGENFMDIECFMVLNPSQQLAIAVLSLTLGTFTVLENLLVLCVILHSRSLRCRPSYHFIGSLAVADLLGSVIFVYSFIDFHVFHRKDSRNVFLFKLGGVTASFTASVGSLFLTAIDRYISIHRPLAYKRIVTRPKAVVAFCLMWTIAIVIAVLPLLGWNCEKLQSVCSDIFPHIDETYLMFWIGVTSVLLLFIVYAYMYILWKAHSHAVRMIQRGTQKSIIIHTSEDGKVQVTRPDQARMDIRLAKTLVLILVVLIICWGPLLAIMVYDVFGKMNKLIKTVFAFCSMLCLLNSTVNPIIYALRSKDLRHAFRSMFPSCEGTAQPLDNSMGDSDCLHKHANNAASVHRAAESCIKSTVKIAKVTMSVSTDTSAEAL

[8] = biological target: T4, Alpha-1A adrenergic receptor (Homo sapiens, UniProt P35348); type: functional, cell-based
T4 sequence (P35348 whole entry): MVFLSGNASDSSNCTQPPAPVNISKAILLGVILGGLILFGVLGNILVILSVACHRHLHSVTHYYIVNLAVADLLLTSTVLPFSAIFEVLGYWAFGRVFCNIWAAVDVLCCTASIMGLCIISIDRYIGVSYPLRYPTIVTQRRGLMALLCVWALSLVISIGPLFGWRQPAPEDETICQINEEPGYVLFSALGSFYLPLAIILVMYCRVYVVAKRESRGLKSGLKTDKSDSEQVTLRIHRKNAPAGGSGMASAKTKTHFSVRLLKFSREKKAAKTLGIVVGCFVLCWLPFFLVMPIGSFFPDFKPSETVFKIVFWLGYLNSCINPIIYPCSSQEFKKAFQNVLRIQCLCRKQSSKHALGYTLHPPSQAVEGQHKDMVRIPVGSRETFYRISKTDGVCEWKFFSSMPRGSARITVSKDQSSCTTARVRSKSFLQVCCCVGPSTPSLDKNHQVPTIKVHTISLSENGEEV

Histamine H1 receptor = Histamine H1 receptor (Homo sapiens, UniProt P35367)
Sequence of Histamine H1 receptor (P35367 whole entry): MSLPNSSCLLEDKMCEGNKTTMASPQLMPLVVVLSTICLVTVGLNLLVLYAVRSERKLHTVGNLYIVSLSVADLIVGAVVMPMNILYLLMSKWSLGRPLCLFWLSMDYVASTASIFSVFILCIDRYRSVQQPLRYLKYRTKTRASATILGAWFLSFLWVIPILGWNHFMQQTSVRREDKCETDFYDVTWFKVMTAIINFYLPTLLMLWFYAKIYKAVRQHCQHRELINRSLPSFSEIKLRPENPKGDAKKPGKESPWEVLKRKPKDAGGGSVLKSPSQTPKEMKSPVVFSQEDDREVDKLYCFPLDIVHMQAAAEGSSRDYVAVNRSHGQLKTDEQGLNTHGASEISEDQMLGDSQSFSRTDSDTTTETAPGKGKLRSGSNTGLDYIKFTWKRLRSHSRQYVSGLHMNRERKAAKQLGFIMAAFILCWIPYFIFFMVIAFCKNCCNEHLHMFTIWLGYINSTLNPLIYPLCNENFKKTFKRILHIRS

Cannabinoid receptor 1 [9] = biological target: T3, Cannabinoid receptor 1; type: functional, cell-based; remark: listed apart in the source
[10] = biological target: T5, Alpha-2A adrenergic receptor (Homo sapiens, UniProt P08913); type: functional, cell-based
T5 sequence (P08913 whole entry): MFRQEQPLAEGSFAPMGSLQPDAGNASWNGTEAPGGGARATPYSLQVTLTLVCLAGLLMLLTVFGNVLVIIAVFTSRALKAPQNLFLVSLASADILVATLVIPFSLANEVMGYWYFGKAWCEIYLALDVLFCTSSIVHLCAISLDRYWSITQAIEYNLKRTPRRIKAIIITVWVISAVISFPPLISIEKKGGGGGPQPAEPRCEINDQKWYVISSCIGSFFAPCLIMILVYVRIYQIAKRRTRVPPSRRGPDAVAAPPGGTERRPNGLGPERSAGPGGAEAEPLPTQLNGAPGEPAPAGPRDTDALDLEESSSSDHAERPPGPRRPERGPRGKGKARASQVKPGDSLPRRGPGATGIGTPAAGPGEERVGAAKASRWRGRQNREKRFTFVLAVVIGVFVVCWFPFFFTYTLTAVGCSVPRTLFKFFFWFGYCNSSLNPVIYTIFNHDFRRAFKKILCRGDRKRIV

[11] = biological target: T6, Amine oxidase [flavin-containing] A (Homo sapiens, UniProt P21397); type: functional
T6 sequence (P21397 whole entry): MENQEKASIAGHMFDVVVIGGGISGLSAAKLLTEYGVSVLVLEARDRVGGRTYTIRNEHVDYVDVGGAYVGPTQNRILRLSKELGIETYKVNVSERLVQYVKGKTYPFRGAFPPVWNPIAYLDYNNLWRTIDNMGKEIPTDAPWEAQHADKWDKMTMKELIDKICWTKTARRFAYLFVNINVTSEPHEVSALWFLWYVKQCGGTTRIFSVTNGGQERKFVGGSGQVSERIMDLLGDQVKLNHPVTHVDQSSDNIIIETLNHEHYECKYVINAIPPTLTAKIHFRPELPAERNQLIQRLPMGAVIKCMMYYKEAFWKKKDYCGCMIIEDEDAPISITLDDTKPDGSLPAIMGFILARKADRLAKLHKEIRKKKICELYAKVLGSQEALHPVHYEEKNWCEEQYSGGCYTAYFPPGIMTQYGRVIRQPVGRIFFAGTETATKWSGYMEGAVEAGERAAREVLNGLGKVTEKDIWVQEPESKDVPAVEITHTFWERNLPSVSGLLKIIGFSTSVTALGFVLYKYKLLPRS

[12] = biological target: Beta-1 adrenergic receptor (Homo sapiens, UniProt P08588); type: functional
[13] = biological target: Sodium channel protein type 5 subunit alpha (Homo sapiens, UniProt Q14524); type: functional, cell-based
Cannabinoid receptor 1 [14] = biological target: T3, Cannabinoid receptor 1; type: functional
[15] = biological target: Gamma-aminobutyric acid receptor subunit alpha-1/alpha-2/beta-2/gamma-2 (Homo sapiens, UniProt P14867+P18507+P47869+P47870); type: protein-complex assay
Sequence of Gamma-aminobutyric acid receptor subunit alpha-1/alpha-2/beta-2/gamma-2 (P14867 whole entry): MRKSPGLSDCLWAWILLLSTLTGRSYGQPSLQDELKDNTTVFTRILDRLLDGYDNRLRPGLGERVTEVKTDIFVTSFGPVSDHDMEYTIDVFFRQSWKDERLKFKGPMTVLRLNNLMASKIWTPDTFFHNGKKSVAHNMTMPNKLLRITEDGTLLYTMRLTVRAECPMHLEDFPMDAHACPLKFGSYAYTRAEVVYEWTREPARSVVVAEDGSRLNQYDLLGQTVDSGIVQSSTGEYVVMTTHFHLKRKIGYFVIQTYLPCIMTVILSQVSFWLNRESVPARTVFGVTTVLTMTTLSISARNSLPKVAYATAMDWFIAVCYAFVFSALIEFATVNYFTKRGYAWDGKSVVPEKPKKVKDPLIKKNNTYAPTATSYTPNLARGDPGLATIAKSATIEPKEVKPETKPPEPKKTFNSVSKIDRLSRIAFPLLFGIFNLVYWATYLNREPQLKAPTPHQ
Sequence of Gamma-aminobutyric acid receptor subunit alpha-1/alpha-2/beta-2/gamma-2 (P47870 whole entry): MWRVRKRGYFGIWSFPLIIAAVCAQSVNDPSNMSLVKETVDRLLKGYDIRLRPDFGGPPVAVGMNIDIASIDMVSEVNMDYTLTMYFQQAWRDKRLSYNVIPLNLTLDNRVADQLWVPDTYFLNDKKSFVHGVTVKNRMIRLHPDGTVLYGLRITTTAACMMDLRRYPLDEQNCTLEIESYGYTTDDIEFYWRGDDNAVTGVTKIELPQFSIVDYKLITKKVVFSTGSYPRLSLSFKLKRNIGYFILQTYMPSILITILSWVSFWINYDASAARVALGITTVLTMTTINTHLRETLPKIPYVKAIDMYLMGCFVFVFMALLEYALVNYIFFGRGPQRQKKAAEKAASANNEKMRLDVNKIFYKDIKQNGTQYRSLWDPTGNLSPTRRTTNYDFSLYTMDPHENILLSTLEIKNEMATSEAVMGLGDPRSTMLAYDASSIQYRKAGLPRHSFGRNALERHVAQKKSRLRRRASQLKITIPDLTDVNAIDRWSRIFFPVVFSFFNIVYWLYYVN
Sequence of Gamma-aminobutyric acid receptor subunit alpha-1/alpha-2/beta-2/gamma-2 (P18507 whole entry): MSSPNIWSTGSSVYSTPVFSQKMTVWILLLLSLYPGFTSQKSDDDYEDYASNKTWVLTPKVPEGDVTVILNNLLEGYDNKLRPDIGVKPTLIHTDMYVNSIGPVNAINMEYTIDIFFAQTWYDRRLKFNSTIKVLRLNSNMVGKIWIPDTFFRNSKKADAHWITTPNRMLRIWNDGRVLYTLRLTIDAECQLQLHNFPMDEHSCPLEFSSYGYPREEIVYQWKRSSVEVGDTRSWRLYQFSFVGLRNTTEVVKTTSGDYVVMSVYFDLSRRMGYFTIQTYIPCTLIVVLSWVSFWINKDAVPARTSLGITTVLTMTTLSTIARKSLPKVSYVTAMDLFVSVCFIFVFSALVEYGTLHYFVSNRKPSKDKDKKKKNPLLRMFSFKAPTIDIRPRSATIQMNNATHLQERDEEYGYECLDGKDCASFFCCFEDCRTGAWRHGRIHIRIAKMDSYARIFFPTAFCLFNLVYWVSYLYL
Sequence of Gamma-aminobutyric acid receptor subunit alpha-1/alpha-2/beta-2/gamma-2 (P47869 whole entry): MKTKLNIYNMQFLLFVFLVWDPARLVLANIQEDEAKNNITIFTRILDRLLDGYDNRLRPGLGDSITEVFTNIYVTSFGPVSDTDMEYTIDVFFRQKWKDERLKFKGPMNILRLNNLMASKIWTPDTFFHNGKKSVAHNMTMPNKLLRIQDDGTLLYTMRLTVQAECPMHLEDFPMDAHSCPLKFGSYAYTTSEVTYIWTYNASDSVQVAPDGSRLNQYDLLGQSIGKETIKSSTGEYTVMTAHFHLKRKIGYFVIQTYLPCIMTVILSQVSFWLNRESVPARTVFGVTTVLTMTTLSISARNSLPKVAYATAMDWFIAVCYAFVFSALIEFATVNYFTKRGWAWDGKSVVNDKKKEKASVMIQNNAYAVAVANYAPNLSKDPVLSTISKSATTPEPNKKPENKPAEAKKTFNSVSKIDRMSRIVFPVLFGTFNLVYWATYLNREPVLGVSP

Acetylcholinesterase = Acetylcholinesterase (Homo sapiens, UniProt P22303); type: functional
Sequence of Acetylcholinesterase (P22303 whole entry): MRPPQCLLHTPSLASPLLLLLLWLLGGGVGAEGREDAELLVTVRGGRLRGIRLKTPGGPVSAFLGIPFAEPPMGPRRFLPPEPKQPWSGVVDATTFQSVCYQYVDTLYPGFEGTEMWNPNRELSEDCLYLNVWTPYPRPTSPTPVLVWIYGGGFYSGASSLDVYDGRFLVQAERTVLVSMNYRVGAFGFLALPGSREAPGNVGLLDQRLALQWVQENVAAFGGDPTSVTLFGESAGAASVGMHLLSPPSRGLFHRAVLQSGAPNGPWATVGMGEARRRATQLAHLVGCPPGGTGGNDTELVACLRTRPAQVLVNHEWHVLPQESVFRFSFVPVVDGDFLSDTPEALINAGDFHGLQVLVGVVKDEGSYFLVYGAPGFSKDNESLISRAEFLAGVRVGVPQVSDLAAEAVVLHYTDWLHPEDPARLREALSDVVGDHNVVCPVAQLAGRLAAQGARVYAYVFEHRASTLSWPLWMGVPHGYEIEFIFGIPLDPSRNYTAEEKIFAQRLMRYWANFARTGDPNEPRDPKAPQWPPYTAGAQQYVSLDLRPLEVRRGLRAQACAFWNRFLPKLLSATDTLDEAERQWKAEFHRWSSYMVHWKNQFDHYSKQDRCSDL
Note: assay procedure not described here.

SMILES	AC50 (Androgen receptor [1])	AC50 (Androgen receptor [2])	AC50 (Histamine H2 receptor)	AC50 [3]	AC50 [4]	AC50 [5]	AC50 (Mu-type opioid receptor)	AC50 [6]	AC50 (Histamine H3 receptor)	AC50 (Cannabinoid receptor 1 [7])	AC50 [8]	AC50 (Histamine H1 receptor)	AC50 (Cannabinoid receptor 1 [9])	AC50 [10]	AC50 [11]	AC50 [12]	AC50 [13]	AC50 (Cannabinoid receptor 1 [14])	AC50 [15]	AC50 (Acetylcholinesterase)
CCC(=O)OCC(=O)[C@@]1(OC(=O)CC)[C@H](C)C[C@H]2[C@H]3[C@H]([C@@H](O)C[C@@]21C)[C@@]1(C)C=CC(=O)C=C1C[C@H]3Cl [ALCLOMETASONE DIPROPIONATE]	> 30 µM	9.4 µM	> 30 µM	> 30 µM	> 30 µM	> 30 µM	> 30 µM	> 30 µM	> 30 µM	> 30 µM	> 30 µM	> 30 µM	0.58 µM	> 30 µM	> 30 µM	> 30 µM				
N#C[C@@H]1C[C@@H]2C[C@@H]2N1C(=O)[C@@H](N)C12CC3CC(CC(O)(C3)C1)C2 [SAXAGLIPTIN ANHYDROUS]																	> 15 µM			
OCCOCCN1CCN(C2=Nc3ccccc3Sc3ccccc32)CC1 [QUETIAPINE]										> 30 µM			> 30 µM					> 10 µM	> 30 µM	> 30 µM
